Where two headings read alike, the source gives them in different places.
How the values were obtained:
Type in all cases: cell-based, human
[1] = system: senescent IMR90 ER:RAS cells (4-OHT-induced); test: Nuclei count (Hoechst, high content imaging) senolytic assay, oncogene-induced senescence (OIS) model, senescent cells; details: for viability at 10 µM / viability at 4.677 µM / viability at 2.188 µM / viability at 1 µM / viability at 0.4677 µM / viability at 0.2188 µM / viability at 0.1 µM / viability at 0.04677 µM / viability at 0.02188 µM / viability at 0.01 µM: Homo sapiens; for viability at 1 µM: log (dose) [M] -6, 72 h; for viability at 0.04677 µM: log (dose) [M] -7.33, 72 h; for viability at 0.02188 µM: log (dose) [M] -7.66, 72 h
Method in brief: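 Cells seeded, left 24 h, then dosed across a 10-point […] series (10 μM down to 10 nM) with DMSO control. After 72 h, wells were fixed, permeabilised and stained with Hoechst. Nuclei were counted by high-content imaging in senescent and non-senescent IMR90 ER:RAS cultures.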

[2] = system: senescent A549 cells (etoposide-induced); test: Nuclei count senolytic assay, therapy-induced senescence (TIS) model, senescent cells; details: Homo sapiens, A549, Senescent cells, mean, read-out: Mean % Cell Survival; for viability at 10 µM: log (dose) [M] -5; for viability at 4.68 µM: log (dose) [M] -5.33; for viability at 2.19 µM: log (dose) [M] -5.66; for viability at 1 µM: log (dose) [M] -6; for viability at 0.468 µM: log (dose) [M] -6.33; for viability at 0.219 µM: log (dose) [M] -6.66; for viability at 0.1 µM: log (dose) [M] -7; for viability at 0.0468 µM: log (dose) [M] -7.33; for viability at 0.0219 µM: log (dose) [M] -7.66; for viability at 0.01 µM: log (dose) [M] -8
Method in brief: (§1)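 Senescence in A549 cells is induced by 48 h of 100 μM etoposide followed by three days without drug, alongside non-senescent controls. Cells are seeded, rested 24 h, then exposed 72 h to compounds (10 nM–10 μM final, […] steps, triplicate) before nuclei are counted by imaging.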

[3] = system: non-senescent control A549 cells; test: Nuclei count senolytic assay, TIS model, non-senescent control cells; details: Homo sapiens, A549, Control cells, mean, read-out: Mean % Cell Survival; for viability at 10 µM: log (dose) [M] -5; for viability at 4.68 µM: log (dose) [M] -5.33; for viability at 2.19 µM: log (dose) [M] -5.66; for viability at 1 µM: log (dose) [M] -6; for viability at 0.468 µM: log (dose) [M] -6.33; for viability at 0.219 µM: log (dose) [M] -6.66; for viability at 0.1 µM: log (dose) [M] -7; for viability at 0.0468 µM: log (dose) [M] -7.33; for viability at 0.0219 µM: log (dose) [M] -7.66; for viability at 0.01 µM: log (dose) [M] -8
Method in brief: as §1

[4] = IMR-90, 72 h, Senescent, log (dose) [M] -5, 72 h, mean n=3 (Fig 3C), read-out: Mean % Cell Survival
[5] = IMR-90, 72 h, Senescent, log (dose) [M] -5.33, 72 h, mean n=3 (Fig 3C), read-out: Mean % Cell Survival
[6] = IMR-90, 72 h, Senescent, log (dose) [M] -5.66, 72 h, mean n=3 (Fig 3C), read-out: Mean % Cell Survival
[7] = IMR-90, 72 h, Senescent, mean n=3 (Fig 3C), read-out: Mean % Cell Survival
[8] = IMR-90, 72 h, Senescent, log (dose) [M] -6.33, 72 h, mean n=3 (Fig 3C), read-out: Mean % Cell Survival
[9] = IMR-90, 72 h, Senescent, log (dose) [M] -6.66, 72 h, mean n=3 (Fig 3C), read-out: Mean % Cell Survival
[10] = IMR-90, 72 h, Senescent, log (dose) [M] -7, 72 h, mean n=3 (Fig 3C), read-out: Mean % Cell Survival
[11] = IMR-90, 72 h, Senescent, log (dose) [M] -8, 72 h, mean n=3 (Fig 3C), read-out: Mean % Cell Survival

## CO[C@H]1C[C@@H]2CC[C@@H](C)[C@@](O)(O2)C(=O)C(=O)N2CCCC[C@H]2C(=O)O[C@H]([C@H](C)C[C@@H]2CC[C@@H](OCCO)[C@H](OC)C2)CC(=O)[C@H](C)/C=C(\C)[C@@H](O)[C@@H](OC)C(=O)[C@H](C)C[C@H](C)/C=C/C=C/C=C/1C [Everolimus, everolimus, reference compound]
[1]; [4]
  viability at 10 µM: 82.2%
[1]; [5]
  viability at 4.677 µM: 80%
[1]; [6]
  viability at 2.188 µM: 87.3%
[1]; [7]
  viability at 1 µM: 92.8%
  viability at 0.04677 µM: 88.2%
  viability at 0.02188 µM: 90.5%
[1]; [8]
  viability at 0.4677 µM: 92.3%
[1]; [9]
  viability at 0.2188 µM: 92.6%
[1]; [10]
  viability at 0.1 µM: 93.7%
[1]; [11]
  viability at 0.01 µM: 93.7%
[1]; IMR-90, Senescent, log (dose) [M] -5, read-out: % Cell Survival
  viability at 10 µM: 67.8%
[1]; IMR-90, Senescent, log (dose) [M] -5.33, read-out: % Cell Survival
  viability at 4.677 µM: 92.4%
[1]; IMR-90, Senescent, log (dose) [M] -5.66, read-out: % Cell Survival
  viability at 2.188 µM: 80%
[1]; IMR-90, Senescent, log (dose) [M] -6.66, read-out: % Cell Survival
  viability at 0.2188 µM: 80.7%
[1]; IMR-90, Senescent, log (dose) [M] -7, read-out: % Cell Survival
  viability at 0.1 µM: 80.3%
[2]
  viability at 10 µM: 71.7%
  viability at 4.68 µM: 84.3%
  viability at 2.19 µM: 79.6%
  viability at 1 µM: 66.9%
  viability at 0.468 µM: 72.1%
  viability at 0.219 µM: 74.4%
  viability at 0.1 µM: 76.2%
  viability at 0.0468 µM: 85.6%
  viability at 0.0219 µM: 95%
  viability at 0.01 µM: 94.7%
[3]
  viability at 10 µM: 106%
  viability at 4.68 µM: 103%
  viability at 2.19 µM: 103%
  viability at 1 µM: 102%
  viability at 0.468 µM: 67.5%
  viability at 0.219 µM: 103%
  viability at 0.1 µM: 102%
  viability at 0.0468 µM: 106%
  viability at 0.0219 µM: 105%
  viability at 0.01 µM: 108%

## COc1cc(/C=C/C(=O)O[C@H]2CC[C@]34C[C@]35CC[C@]3(C)[C@@H]([C@H](C)CCC=C(C)C)CC[C@@]3(C)[C@@H]5CC[C@H]4C2(C)C)ccc1O [Gamma oryzanol, gamma oryzanol]
[1]; [4]
  viability at 10 µM: 145%
[1]; [5]
  viability at 4.677 µM: 134%
[1]; [6]
  viability at 2.188 µM: 135%
[1]; [7]
  viability at 1 µM: 139%
  viability at 0.04677 µM: 151%
  viability at 0.02188 µM: 154%
[1]; [8]
  viability at 0.4677 µM: 141%
[1]; [9]
  viability at 0.2188 µM: 142%
[1]; [10]
  viability at 0.1 µM: 132%
[1]; [11]
  viability at 0.01 µM: 125%
[1]; IMR-90, Senescent cells, log (dose) [M] -5, individual replicates, SUP FIG 4C, read-out: % Cell Survival
  viability at 10 µM: 150%
[1]; IMR-90, Senescent cells, log (dose) [M] -5.66, individual replicates, SUP FIG 4C, read-out: % Cell Survival
  viability at 2.188 µM: 137%
[1]; IMR-90, Senescent cells, log (dose) [M] -6.33, individual replicates, SUP FIG 4C, read-out: % Cell Survival
  viability at 0.4677 µM: 153%
[1]; IMR-90, Senescent, log (dose) [M] -8, read-out: % Cell Survival
  viability at 0.01 µM: 81.6%
[1]; experimental screen, OIS IMR90 ER:RAS
  senolytic activity (in words): inactive
[2]
  viability at 10 µM: 96.8%
  viability at 4.68 µM: 100%
  viability at 2.19 µM: 105%
  viability at 1 µM: 106%
  viability at 0.468 µM: 107%
  viability at 0.219 µM: 105%
  viability at 0.1 µM: 114%
  viability at 0.0468 µM: 126%
  viability at 0.0219 µM: 61.5%
  viability at 0.01 µM: 76%
[3]
  viability at 10 µM: 37.8%
  viability at 4.68 µM: 35%
  viability at 2.19 µM: 87.4%
  viability at 1 µM: 76.1%
  viability at 0.468 µM: 75.3%
  viability at 0.219 µM: 109%
  viability at 0.1 µM: 105%
  viability at 0.0468 µM: 103%
  viability at 0.0219 µM: 106%
  viability at 0.01 µM: 103%
